Experimental data: patent publication US20030114358A1, “Use of compatible solutes as inhibitors of the enzymatic decomposition of macromolecular biopolymers” (priority 2000, published 2003)

Assays:
Format in all cases: biochemical
human IgG = experiment: ELISA residual signal after pepsin pretreatment of human IgG; conditions: for Residual signal in ELISA, pretreated antibody human IgG: two hours at 37° C.
Protocol: (§1) The inhibition by ectoine of the proteolysis of antibodies was additionally shown by enzyme-linked immunosorbent assay (ELISA). Thus, 96-well ELISA plates were coated over night with 0.5 μg of human IgG in 100 μl of 0.9% NaCl at 4° C. Subsequently, the plates were washed three times in 50 mM Tris, 0.8% NaCl, 0.020% KCl, pH 7.4, C(T-TBS), and blocked with 200 μl of 1% gelatin in TBS for 2 hours at 37° C. After three washes in T-TBS, an incubation was performed with monoclonal mouse anti-human IgG diluted 1:250 in TBS at 50 μl per well for one hour at 37° C. After four washes with T-TBS, incubation was performed with a peroxidase-conjugated rabbit anti-mouse antibody diluted 1:5000 in TBS at 100 μl per well for one hour at 37° C. After four additional washes, the enzyme reaction was performed by adding 100 μl of substrate per well. As the substrate was used 4.8 mg of phenylene diamine in 3 ml of 0.2 M Na2HPO4, 3 ml of 0.1 M citric acid, 6 ml of water, and 5 μl of H2O2. The reaction was stopped after about 10 minutes by acidification with 100 μl per well of 0.07 M sulfuric acid, and the plates were quantified in an ELISA autoreader. Prior to the experiment, all three protein components were proteolyzed by pepsin for two hours at 37° C. with or without the addition of 0.5 M ectoine. […] The antibody conjugate was not attacked by pepsin. The treatment was performed in an analogous manner with hydroxyectoine, proline and betaine.

[1] = system: monoclonal mouse anti-human IgG; experiment: ELISA residual signal after pepsin pretreatment of monoclonal mouse antibody; conditions: for Residual signal in ELISA, pretreated antibody monoclonal mouse antibody: two hours at 37° C.
Protocol: as §1

[2] = system: peroxidase-conjugated rabbit anti-mouse antibody; experiment: ELISA residual signal after pepsin pretreatment of peroxidase conjugate; conditions: two hours at 37° C.
Protocol: as §1, with “The treatment was performed in an analogous manner with hydroxyectoine, proline and betaine.” left out

[3] = system: heavy chains of a human antibody (IgG); experiment: Limited proteolysis of human IgG by pepsin, quantified in 12% SDS gels; conditions: 0.5 M solute; 0.5 mg/ml antibody, 5 μg/ml pepsin, 37° C., 100 mM sodium acetate pH 3; FIG. 1
Protocol: Limited proteolyses of human IgG were performed at an antibody concentration of 0.5 mg/ml and a pepsin concentration of 5 μg/ml at 37° C. in 100 mM sodium acetate, pH 3. The incubations were performed without additions under 0.5 M ectoine, under 0.5 M hydroxyectoine, and under a mixture of 0.25 M ectoine and 0.25 M hydroxyectoine. The course of the limited proteolyses was quantified subsequent to the incubations in 12% SDS gels under reducing conditions.
Lanes 1, 5, 9: with water; lanes 2, 6, 10: with ectoine; lanes 3, 7, 11: with ectoine and hydroxyectoine; lanes 4, 8, 12; with hydroxyectoine; lanes 1, 2, 3, 4: without incubation; lanes 5, 6, 7, 8: after 15 min of incubation; lanes 9, 10, 11, 12: after 180 min of incubation.

pepsin = pepsin (Homo sapiens, UniProt P0DJD8); experiment: Pepsin activity by spectrophotometry on hydrolysis of a synthetic hexapeptide; conditions: substrate Leu-Ser-p-NitroPhe-Nle-Ala-Leu methyl ester; enzyme-kinetic measurements
pepsin, sequence (P0DJD8 63-388): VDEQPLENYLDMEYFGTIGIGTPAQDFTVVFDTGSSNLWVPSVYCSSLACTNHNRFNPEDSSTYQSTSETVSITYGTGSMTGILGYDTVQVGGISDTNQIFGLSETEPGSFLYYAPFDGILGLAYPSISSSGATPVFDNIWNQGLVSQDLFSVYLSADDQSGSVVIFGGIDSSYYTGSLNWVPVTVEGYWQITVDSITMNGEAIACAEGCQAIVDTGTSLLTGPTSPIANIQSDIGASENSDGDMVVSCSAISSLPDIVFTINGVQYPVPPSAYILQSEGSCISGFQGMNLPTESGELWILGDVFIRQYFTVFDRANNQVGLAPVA
Protocol: In principle, the experiments allow for two possible explanations. On the one hand, the compatible solutes could inhibit the protease. On the other hand, the solute could prevent the attack of the protease according to the invention for steric reasons through stabilization of the native, more compact conformation of the antibody molecule. Therefore, the effect of ectoine and hydroxyectoine on the activity of pepsin was determined by spectrophotometry on the hydrolysis of a synthetic low-molecular weight hexapeptide [E. Schinaith: Clin. Biochem. 22, 91-98 (1989)]. […] This is a clear indication of the fact that the inhibition of the antibody proteolyses is to be attributed to steric effects according to the invention.

[4] = with ectoine (0.5 M) and pepsin
[5] = with ectoine (0.5 M), without pepsin

CC1=NCC[C@@H](C(=O)O)N1 [ectoine]
protection of human IgG against proteolytic digest by pepsin (human IgG; 0.5 M ectoine, ELISA): effectively protected | Residual signal in ELISA, pretreated antibody human IgG (human IgG; [4]): 91% | Residual signal in ELISA, pretreated antibody human IgG (human IgG; [5]): 85% | protection of monoclonal mouse antibody against proteolytic digest by pepsin ([1]; 0.5 M ectoine, ELISA): effectively protected | Residual signal in ELISA, pretreated antibody monoclonal mouse antibody [1, 4]: 98% | Residual signal in ELISA, pretreated antibody monoclonal mouse antibody [1, 5]: 97% | Residual signal in ELISA, pretreated antibody peroxidase conjugate [2, 4]: 121% | Residual signal in ELISA, pretreated antibody peroxidase conjugate [2, 5]: 98% | hydrolysis of the heavy chain of human IgG by pepsin [3]: inhibited significantly | inhibition of the protease pepsin (pepsin): neither ectoine nor hydroxyectoine inhibits the protease

CC1=NC[C@H](O)[C@@H](C(=O)O)N1 [hydroxyectoine]
hydrolysis of the heavy chain of human IgG by pepsin [3]: inhibited significantly | inhibition of the protease pepsin (pepsin): neither ectoine nor hydroxyectoine inhibits the protease
